# Bridges are numbered along the chain shown (N, C = ends). Where no end group is shown, it is not given here. [ ]: non-standard residue; d: D form. conjugation handle = not defined here; tBuAla = CC(C)(C)C[C@H](N)C(=O)O; Tle = CC(C)(C)[C@H](N)C(=O)O; Nle = CCCC[C@H](N)C(=O)O
# T1: Human SORT1 (78-755)-His (human, UniProt Q99523 78-755)
# T1 construct: range 78-755; Amine-coupled to CM5 chip for SPR; Two suppliers are named (Acrobiosystems, GenScript)
# T1 sequence (looked up): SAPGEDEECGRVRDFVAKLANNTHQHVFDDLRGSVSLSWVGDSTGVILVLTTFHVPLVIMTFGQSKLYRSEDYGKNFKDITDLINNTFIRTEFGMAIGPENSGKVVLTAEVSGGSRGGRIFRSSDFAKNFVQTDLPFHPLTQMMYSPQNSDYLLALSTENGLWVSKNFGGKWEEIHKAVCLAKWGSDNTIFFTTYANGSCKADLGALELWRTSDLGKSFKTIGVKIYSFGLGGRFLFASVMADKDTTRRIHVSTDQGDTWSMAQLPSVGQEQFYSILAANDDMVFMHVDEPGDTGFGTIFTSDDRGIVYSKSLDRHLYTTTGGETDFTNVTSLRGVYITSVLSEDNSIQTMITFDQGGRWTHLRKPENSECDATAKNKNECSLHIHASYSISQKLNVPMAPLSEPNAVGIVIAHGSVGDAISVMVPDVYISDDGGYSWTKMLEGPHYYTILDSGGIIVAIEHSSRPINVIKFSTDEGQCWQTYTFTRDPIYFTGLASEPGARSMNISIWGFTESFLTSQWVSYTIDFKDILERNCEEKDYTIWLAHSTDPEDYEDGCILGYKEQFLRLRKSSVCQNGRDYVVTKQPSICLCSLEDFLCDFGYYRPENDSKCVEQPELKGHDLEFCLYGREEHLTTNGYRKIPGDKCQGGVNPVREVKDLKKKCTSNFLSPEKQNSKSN
# T2: cyno SORT1 (76-753)-His (cyno, UniProt A0A2K5VHG2 74-751)
# T2 construct: range 76-753; Amine-coupled to CM5 chip for SPR
# T2 sequence: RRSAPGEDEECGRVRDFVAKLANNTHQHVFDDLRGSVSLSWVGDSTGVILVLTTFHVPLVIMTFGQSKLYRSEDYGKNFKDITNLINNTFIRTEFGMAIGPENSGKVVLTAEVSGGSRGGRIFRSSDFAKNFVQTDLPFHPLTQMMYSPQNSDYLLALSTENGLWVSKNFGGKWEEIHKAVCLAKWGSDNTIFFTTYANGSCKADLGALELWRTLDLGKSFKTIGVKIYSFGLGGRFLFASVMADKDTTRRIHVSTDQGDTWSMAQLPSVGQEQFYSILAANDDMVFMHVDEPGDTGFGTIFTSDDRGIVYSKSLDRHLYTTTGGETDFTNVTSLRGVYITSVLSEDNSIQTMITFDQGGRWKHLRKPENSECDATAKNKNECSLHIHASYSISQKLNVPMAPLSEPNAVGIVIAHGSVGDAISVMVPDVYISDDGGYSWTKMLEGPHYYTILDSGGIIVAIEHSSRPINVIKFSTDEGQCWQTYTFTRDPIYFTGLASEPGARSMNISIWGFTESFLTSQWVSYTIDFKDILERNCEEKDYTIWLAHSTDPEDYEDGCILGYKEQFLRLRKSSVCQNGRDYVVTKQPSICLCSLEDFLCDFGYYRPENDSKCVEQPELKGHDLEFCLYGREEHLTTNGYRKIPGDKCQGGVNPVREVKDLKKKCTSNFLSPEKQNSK
# T3: rat SORT1 (76-752)-His (rat, UniProt O54861 76-752)
# T3 construct: range 76-752; Amine-coupled to CM5 chip for SPR
# T3 sequence (looked up): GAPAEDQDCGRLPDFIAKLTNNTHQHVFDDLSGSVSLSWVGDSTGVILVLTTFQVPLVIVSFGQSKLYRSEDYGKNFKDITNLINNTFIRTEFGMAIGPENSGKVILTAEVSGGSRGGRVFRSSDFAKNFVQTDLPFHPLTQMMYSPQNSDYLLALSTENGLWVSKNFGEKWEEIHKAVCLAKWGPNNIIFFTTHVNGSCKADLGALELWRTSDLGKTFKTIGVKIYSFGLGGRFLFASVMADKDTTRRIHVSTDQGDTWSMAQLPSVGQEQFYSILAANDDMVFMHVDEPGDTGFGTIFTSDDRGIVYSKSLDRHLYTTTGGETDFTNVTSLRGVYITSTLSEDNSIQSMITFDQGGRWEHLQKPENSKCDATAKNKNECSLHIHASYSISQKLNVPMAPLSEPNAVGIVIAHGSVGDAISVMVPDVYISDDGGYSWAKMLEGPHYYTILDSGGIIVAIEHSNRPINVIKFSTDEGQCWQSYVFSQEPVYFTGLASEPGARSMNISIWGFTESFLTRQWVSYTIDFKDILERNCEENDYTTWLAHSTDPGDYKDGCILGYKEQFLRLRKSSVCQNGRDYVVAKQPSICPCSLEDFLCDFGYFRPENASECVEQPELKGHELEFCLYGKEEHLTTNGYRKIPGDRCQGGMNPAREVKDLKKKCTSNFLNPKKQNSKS
# Experiments:
# housekeeping gene mRNA [1] = assay: Mouse CNS delivery, intracerebroventricular, 14/60-day (RT-qPCR); assay type: in vivo; conditions: for ICV % housekeeping gene knockdown relative to aCSF: 14-day, ICV dosing
# Experimental: The delivery of the SORT1 peptide conjugates was further tested over longer dosing regimens of 14 days and 60 days. […] The delivery of the siRNA-peptide-conjugated was measured at the end of the 14- or 60-day dosing regimen via RT-qPCR of samples from various parts of the mouse CNS: lumbar spinal cord (LSC; FIGS. 25A and 25B), brainstem (BS; FIGS. 25C and 25D), cerebellum (CB; FIGS. 25E and 25F), frontal cortex (FC; FIGS. 26A and 26B), somatosensory cortex (SSC; FIGS. 26C and 26D), hippocampus (HC; FIGS. 26E and 26F), thalamus (TH; FIGS. 27A and 27B), liver (FIGS. 27C and 27D), and heart (FIGS. 27E and 27F). 14- and 60-days post-injection mice were sacrificed, and tissues collected (brain, spinal cord, heart, liver). Tissues were flash frozen and prepared for RT-qPCR detection of target housekeeping gene mRNA knockdown (quantified below in Table 20).
# housekeeping gene mRNA [2] = assay: Mouse CNS delivery, intrathecal, 7-day (RT-qPCR); assay type: in vivo; conditions: IT dosing
# Experimental: These conjugates were administered to C57BL/6 mice intrathecally (IT), by injection into the spinal canal, for 7 days at 150 μg of siRNA. The delivery efficacy of the various peptide conjugates was measured by measuring the amount of the housekeeping gene mRNA remaining in tissue samples at the end of the 7-day dosing regimen via RT-qPCR of samples from various parts of the mouse CNS: lumbar spinal cord (LSC; FIG. 24A), brainstem (BS; FIG. 24B), cerebellum (CB; FIG. 24C), frontal cortex (FC; FIG. 24D), somatosensory cortex (SSC; FIG. 24E), hippocampus (HC; FIG. 24F), thalamus (TH;
# FIG. 24G), liver (FIG. 24H), and heart (FIG. 24I). 7 days post-injection mice were sacrificed, and tissues collected (brain, spinal cord, heart, liver). Tissues were flash frozen and prepared for RT-qPCR detection of target housekeeping gene mRNA knockdown (quantified below in Table 19). Furthermore, histological studies were performed in the brain and cervical spinal cord. In situ hybridization using miRNAscope and a probe that binds the housekeeping gene siRNA was used to assess the localization of the SORT1 peptide conjugates in cross sections of the brain and cervical spinal cord.
# To characterize the amount of mRNA present in tissue samples following 7 days from mice treated with SORT1 peptide conjugates, control mice were injected with an equivalent volume of artificial cerebrospinal fluid (aCSF) as a comparative negative control.
# housekeeping gene mRNA [3] = assay: Rat CNS delivery, intrathecal, 28-day (RT-qPCR); assay type: in vivo; conditions: IT, 900 μg siRNA
# Experimental: SORT1 peptide 3 conjugate was prepared as described above. The SORT1 peptide 3 conjugate or a benchmark lipid were administered to rats intrathecally (IT), by injection into the spinal cord, for 28 days at 900 μg of siRNA. The delivery efficacy of the SORT1 peptide 3 conjugate was measured by measuring the amount of the housekeeping gene mRNA remaining in tissue samples at the end of the 28-day dosing regimen via RT-qPCR of samples from various parts of the rat CNS: lumbar spinal cord (LSC), cervical spinal cord (CSC), brainstem (BS), cerebellum (CB), somatosensory cortex (SSC), frontal cortex (FC), hippocampus (HC), thalamus (TH), liver, and heart. 28 day post-injection rats were sacrificed, and tissues collected (brain, spinal cord, heart, liver). Tissues were flash frozen and prepared for RT-qPCR detection of target housekeeping gene mRNA knockdown.
# To characterize the amount of mRNA present in tissue samples from rats treated with SORT1 peptide 3 conjugates following the 28-day dosing regimen, control rats were injected with an equivalent volume of artificial cerebrospinal fluid (aCSF) as a comparative negative control.
# Human SORT1 (78-755)-His = biological target: T1, Human SORT1 (78-755)-His; assay: SPR (Biacore 8K), SORT1 on CM5 chip, unconjugated peptide with conjugation handles as analyte, 1:1 model
# Experimental: (§1) SPR analysis was performed on Series S CM5 chips (Cytiva) using a Biacore 8K instrument (Cytiva). Sensorgrams were double-referenced by subtracting the response on both a reference flow cell and a blank sample. Human SORT1 (78-755)-His (Acrobiosystems), human SORT1 (78-755)-His(GenScript), mouse SORT1 (76-753)-His (R&D Systems), rat SORT1 (76-752)-His (GenScript), and cyno SORT1 (76-753)-His (GenScript) were diluted to 20-60 μg/mL in 10 mM sodium acetate pH 4.5 buffer and immobilized onto Series S CM5 chips using amine coupling at a flow rate of 10 μL/min for 45-100 s.
# (§2) Ten start-up cycles and a blank cycle preceded each analysis run. The runs were performed by sequential injections of analyte (0-20 nM, 3-fold serial dilutions) with a 90 s association and 900 s dissociation at a flow rate of 30 μL/min, followed by two regeneration cycles with 2 M MgCl2 for 90 s at a flow rate of 10 μL/min. […] Five start-up cycles and a blank cycle preceded each analysis run. The runs were performed by sequential injections of analyte (0-25 nM) with a 150 seconds (s) association and 300 s dissociation at a flow rate of 30 μL/min, followed by a regeneration with 2 M MgCl₂ for 200 s at a flow rate of 10 μL/min. The kinetic rate constants (kₐ and kd) and the equilibrium binding constant (Kd) were calculated using a 1:1 kinetic binding model on the Biacore Insight Evaluation Software (Cytiva).
# (§3) SPR analysis was performed on Series S CM5 chips (Cytiva) using a Biacore 8K instrument (Cytiva). Sensorgrams were double-referenced by subtracting the response on both a reference flow cell and a blank sample. The SPR analysis was conducted using four different SORT1 species: Human SORT1, Mouse SORT1, Rat SORT1, and Cyno SORT1. The samples were prepared according to the general procedure described above herein. The kinetic rate constants (ka and […]) and the equilibrium binding constant (Kd) were calculated using a 1:1 kinetic binding model on the Biacore Insight Evaluation Software (Cytiva).
# cyno SORT1 (76-753)-His = biological target: T2, cyno SORT1 (76-753)-His; assay: as above
# Experimental: as §1, §2, §3
# rat SORT1 (76-752)-His = biological target: T3, rat SORT1 (76-752)-His; assay: as above
# Experimental: as §1, §2, §3
molecule,measurement,setting,value
"SORT1 peptide 3 conjugate (RWCENKR[Nle]FTCRQ[Tle][tBuAla]; disulfide 3-11 (inferred); not fully specified (residue 6); printed as RWCENKR(Nle)FTCRQ(B13)(F02); also: conjugated via a linker to siRNA targeting a housekeeping gene mRNA, attachment presumably at the introduced Lys)",ICV % housekeeping gene knockdown relative to aCSF,housekeeping gene mRNA [1]; BS,79.6%
same,ICV % housekeeping gene knockdown relative to aCSF,housekeeping gene mRNA [1]; CB,66.6%
same,ICV % housekeeping gene knockdown relative to aCSF,housekeeping gene mRNA [1]; FC,72.6%
same,ICV % housekeeping gene knockdown relative to aCSF,housekeeping gene mRNA [1]; HC (deep brain),72.1%
same,ICV % housekeeping gene knockdown relative to aCSF,housekeeping gene mRNA [1]; Heart,7.9%
same,knockdown of the target gene in peripheral tissues (heart and liver) relative to aCSF,"housekeeping gene mRNA [1]; ICV, after 14 days",No significant knockdown
same,ICV % housekeeping gene knockdown relative to aCSF,"housekeeping gene mRNA [1]; LSC, 100 μg siRNA",84.8%
same,ICV % housekeeping gene knockdown relative to aCSF,housekeeping gene mRNA [1]; Liver,8.7%
same,ICV % housekeeping gene knockdown relative to aCSF,housekeeping gene mRNA [1]; SSC,72.6%
same,ICV % housekeeping gene knockdown relative to aCSF,housekeeping gene mRNA [1]; TH (deep brain),76.2%
same,IT % housekeeping gene knockdown relative to aCSF,housekeeping gene mRNA [2]; BS,77.0%
same,IT % housekeeping gene knockdown relative to aCSF,housekeeping gene mRNA [2]; CB,53.6%
same,IT % housekeeping gene knockdown relative to aCSF,housekeeping gene mRNA [2]; FC,50.1%
same,IT % housekeeping gene knockdown relative to aCSF,housekeeping gene mRNA [2]; HC (deep brain),66.6%
same,IT % housekeeping gene knockdown relative to aCSF,housekeeping gene mRNA [2]; Heart,47.0%
same,IT % housekeeping gene knockdown relative to aCSF,"housekeeping gene mRNA [2]; LSC, 150 μg siRNA",94.7%
same,IT % housekeeping gene knockdown relative to aCSF,housekeeping gene mRNA [2]; Liver,0.0%
same,IT % housekeeping gene knockdown relative to aCSF,housekeeping gene mRNA [2]; SSC,61.4%
same,IT % housekeeping gene knockdown relative to aCSF,housekeeping gene mRNA [2]; TH (deep brain),33.4%
same,housekeeping gene mRNA in the CNS relative to the aCSF control,housekeeping gene mRNA [3],significantly reduced
"RWCENK(conjugation handle)R[Nle]FTCRQ[Tle][tBuAla] (disulfide 3-11 (inferred); reading uncertain; also: K6 conjugation handle not given here, printed as RWCENKR(Nle)FTCRQ(B13)(F02)) [SORT1 peptide 3 (w/conjugation handles), unconjugated]",Kd,Human SORT1 (78-755)-His,168 pM
same,Kd,cyno SORT1 (76-753)-His,191 pM
same,Kd,rat SORT1 (76-752)-His,1160 pM

# From patent US20260183411A1, “TARGETING SORTILIN” (priority 2024, published 2026)
